Measurements from publication PMC8256334, “Simultaneous Determination of a Novel PD-L1 Inhibitor, IMMH-010, and Its Active Metabolite, YPD-29B, in Rat Biological Matrices by Polarity-Switching Liquid Chromatography-Tandem Mass Spectrometry: Application to ADME Studies” (Frontiers in Pharmacology, 2021).
Where “and” joins values, the source holds several entries; their conditions need not be identical. Equal entries are not always repeated. Where two headings read alike, the source gives them in different places.

How the values were obtained:
Format in all cases: in vivo, Sprague-Dawley rats
[1] = Excretion study in rats (urine and feces); settings: for excretion in feces, % Of administered dose: i.g. IMMH-010 maleate 10 mg/kg, n = 5
Protocol: (§1) Female Sprague-Dawley rats (200 ± 20 g, Vital River, Beijing, China) were kept in standard environmental conditions. Rats were fasted overnight with free access to water and randomly assigned to different groups before the experiments. All animal protocols were approved by the Institute Animal Care and Welfare Committee of the Institute of Materia Medica, Chinese Academy of Medical Sciences and Peking Union Medical College.
After i. g. administration of IMMH-010 maleate (10 mg/kg), rats were housed in separate metabolite cages to collect their urine and feces: 0–12, 12–24, 24–36, 36–48, and 48–72 h for urine and 0–24, 24–48, and 48–72 h for feces. Fecal samples were dried in air. Urine samples were stored at −20°C prior to analysis.

[2] = PK study in rats after single i.g. administration of IMMH-010 maleate; settings: rat plasma; for AUC(0-t) / Cmax / MRT last / Tmax / AUC(0-inf) / MRT inf / half-life: female, Sprague-Dawley, po, n = 5; for AUC(0-t) / Cmax / MRT last / AUC(0-inf) / MRT inf / half-life: mean ± SD; for MRT last: read-out: MRT(0-t); for Tmax: median (range); for MRT inf: read-out: MRT(0-∞); for half-life: rat, plasma, read-out: t1/2β (converted)
Excerpt: as §1
IMMH-010 maleate was suspended in 0.5% sodium carboxymethyl cellulose. The rats were intragastrically (i.g.) administered IMMH-010 maleate at doses of 10, 30, and 100 mg/kg. Blood samples were withdrawn via the orbital plexus into heparinized tubes with NaF at 5, 15, and 30 min and 1, 2, 4, 6, 8, 12, 24, 36, and 48 h. Plasma was immediately prepared by centrifugation at 5,000 rpm for 10 min. All samples were stored at −20°C prior to analysis. The PK parameters of IMMH-010 and YPD-29B were calculated using the Linear Trapezoidal with Linear Interpolation method by WinNonlin software version 6.3 based on a noncompartmental model (Pharsight Corporation, Mountain View, United States ).

[3] = Tissue distribution study in rats; settings: for concentration in adrenal gland / concentration in brain / concentration in heart / concentration in kidney / concentration in liver / concentration in lung / concentration in lymph / concentration in plasma / concentration in spleen / concentration in thymus: n = 5; for Kp at 0.25 h / Kp at 0.5 h: female, Sprague-Dawley, rat, oral, i.g. 10 mg/kg IMMH-010 maleate, read-out: T/P (tissue-to-plasma partition)
Protocol: as §1
The tissue distribution study was performed 15 min, 30 min, 4 h and 12 h after i. g. administration of 10 mg/kg IMMH-010 maleate. Blood was collected and centrifuged at 5,000 rpm for 10 min. The heart, liver, brain, spleen, lung, kidney, adrenal gland, thymus, and lymph were harvested immediately. The tissues were washed with normal saline and blotted dry with filter paper. All samples were stored at -20°C before analysis.

[4] = single i.g. IMMH-010 maleate 10 mg/kg
[5] = single i.g. IMMH-010 maleate 30 mg/kg
[6] = single i.g. IMMH-010 maleate 100 mg/kg
[7] = time 0.25 (15 min) after i.g. 10 mg/kg IMMH-010 maleate
[8] = time 0.5 (30 min) after i.g. 10 mg/kg IMMH-010 maleate
[9] = time 4 (4 h) after i.g. 10 mg/kg IMMH-010 maleate

excretion in feces, % Of administered dose ([1]; time 24 h): 6.97 ± 5.69 % Of administered dose
excretion in feces, % Of administered dose ([1]; time 48 h): 7.99 ± 5.66 % Of administered dose
share of the dose recovered in the urine and feces as this analyte ([1]; urine and feces within 72 h, rats, oral IMMH-010 maleate): 7.99%
AUC(0-t) [2, 4]: 8.5 ± 3.67 ng·h/mL
Cmax [2, 4]: 8.45 ± 3.27 ng/mL
MRT last [2, 4]: 0.8 ± 0.13 h
Tmax [2, 4]: 0.5 h
AUC(0-inf) [2, 5]: 44.1 ± 20.6 ng·h/mL
AUC(0-t) [2, 5]: 37.5 ± 13.5 ng·h/mL
Cmax [2, 5]: 28.4 ± 13 ng/mL
MRT last [2, 5]: 1.09 ± 0.21 h
MRT inf [2, 5]: 1.49 ± 0.3 h
Tmax [2, 5]: 0.5 h
AUC(0-inf) [2, 6]: 134 ± 45.7 ng·h/mL
AUC(0-t) [2, 6]: 129 ± 45.6 ng·h/mL
Cmax [2, 6]: 71.4 ± 34 ng/mL
MRT last [2, 6]: 1.82 ± 0.53 h
MRT inf [2, 6]: 2.11 ± 0.69 h
Tmax [2, 6]: 0.5 h
half-life ([2]; 30 mg/kg, single i.g. IMMH-010 maleate 30 mg/kg): 0.98 ± 0.28 h
half-life ([2]; 100 mg/kg, single i.g. IMMH-010 maleate 100 mg/kg): 1.63 ± 0.49 h
dose dependence of AUC ([2]; dose range 10–100 mg/kg IMMH-010 maleate, oral): proportional to the dose
concentration in adrenal gland ([3]; adrenal gland, time 0.25 (15 min) after i.g. 10 mg/kg IMMH-010 maleate): 80.8 ± 47.4 ng/ml or ng/g
concentration in adrenal gland ([3]; adrenal gland, time 0.5 (30 min) after i.g. 10 mg/kg IMMH-010 maleate): 204 ± 132 ng/ml or ng/g
concentration in adrenal gland ([3]; adrenal gland, time 4 (4 h) after i.g. 10 mg/kg IMMH-010 maleate): 41.3 ± 6.9 ng/ml or ng/g
concentration in brain ([3]; brain, time 0.25 (15 min) after i.g. 10 mg/kg IMMH-010 maleate): 6.22 ± 0.34 ng/ml or ng/g
concentration in brain ([3]; brain, time 0.5 (30 min) after i.g. 10 mg/kg IMMH-010 maleate): 3.66 ± 3.35 ng/ml or ng/g
concentration in brain ([3]; brain, time 4 (4 h) after i.g. 10 mg/kg IMMH-010 maleate): BLQ
Kp at 0.25 h ([3]; adrenal gland): 25
Kp at 0.5 h ([3]; adrenal gland): 51.1
Kp at 0.25 h ([3]; brain): 1.9
Kp at 0.5 h ([3]; brain): 0.9
Kp at 0.25 h ([3]; heart): 5.4
Kp at 0.5 h ([3]; heart): 9.5
Kp at 0.25 h ([3]; liver): 3.8
Kp at 0.5 h ([3]; liver): 6.4
Kp at 0.5 h ([3]; lung): 0.3
Kp at 0.25 h ([3]; lymph): 1.7
Kp at 0.5 h ([3]; lymph): 21.2
Kp at 0.25 h ([3]; spleen): 0.9
Kp at 0.5 h ([3]; spleen): 2
concentration in heart ([3]; heart, time 0.25 (15 min) after i.g. 10 mg/kg IMMH-010 maleate): 17.3 ± 10.5 ng/ml or ng/g
concentration in heart ([3]; heart, time 0.5 (30 min) after i.g. 10 mg/kg IMMH-010 maleate): 38.1 ± 25.8 ng/ml or ng/g
concentration in heart ([3]; heart, time 4 (4 h) after i.g. 10 mg/kg IMMH-010 maleate): 1.92 ± 2.66 ng/ml or ng/g
concentration in kidney [3, 7]: BLQ
concentration in kidney [3, 8]: BLQ
concentration in kidney [3, 9]: BLQ
concentration in liver ([3]; liver, time 0.25 (15 min) after i.g. 10 mg/kg IMMH-010 maleate): 12.4 ± 13.4 ng/ml or ng/g
concentration in liver ([3]; liver, time 0.5 (30 min) after i.g. 10 mg/kg IMMH-010 maleate): 25.6 ± 19.8 ng/ml or ng/g
concentration in liver ([3]; liver, time 4 (4 h) after i.g. 10 mg/kg IMMH-010 maleate): 6.30 ± 5.77 ng/ml or ng/g
concentration in lung ([3]; lung, time 0.25 (15 min) after i.g. 10 mg/kg IMMH-010 maleate): BLQ
concentration in lung ([3]; lung, time 0.5 (30 min) after i.g. 10 mg/kg IMMH-010 maleate): 1.37 ± 3.06 ng/ml or ng/g
concentration in lung ([3]; lung, time 4 (4 h) after i.g. 10 mg/kg IMMH-010 maleate): BLQ
concentration in lymph ([3]; lymph, time 0.25 (15 min) after i.g. 10 mg/kg IMMH-010 maleate): 5.46 ± 5.1 ng/ml or ng/g
concentration in lymph ([3]; lymph, time 0.5 (30 min) after i.g. 10 mg/kg IMMH-010 maleate): 84.6 ± 87.9 ng/ml or ng/g
concentration in lymph ([3]; lymph, time 4 (4 h) after i.g. 10 mg/kg IMMH-010 maleate): 12.5 ± 7.1 ng/ml or ng/g
concentration in plasma [3, 7]: 3.23 ± 2.28 ng/ml or ng/g
concentration in plasma [3, 8]: 3.99 ± 3.45 ng/ml or ng/g
concentration in plasma [3, 9]: BLQ
concentrations in tissues at 12 h ([3]; rat tissues, 12 h after oral 10 mg/kg IMMH-010 maleate): below the LLOQ
concentration in spleen ([3]; spleen, time 0.25 (15 min) after i.g. 10 mg/kg IMMH-010 maleate): 2.98 ± 2.77 ng/ml or ng/g
concentration in spleen ([3]; spleen, time 0.5 (30 min) after i.g. 10 mg/kg IMMH-010 maleate): 8.08 ± 8.51 ng/ml or ng/g
concentration in spleen ([3]; spleen, time 4 (4 h) after i.g. 10 mg/kg IMMH-010 maleate): 0.848 ± 1.896 ng/ml or ng/g
concentration in thymus [3, 7]: BLQ
concentration in thymus [3, 8]: BLQ
concentration in thymus [3, 9]: BLQ
SMILES: CC(C)OC(=O)C(CO)NCc1cc(Cl)c(OCc2cccc(-c3ccccc3)c2Br)cc1OCc1cccnc1 (centres unmarked) [IMMH-010, 2-[4-(2-bromo-biphenyl-3-ylmethoxy)-5-chloro-2-(pyridin-3-ylmethoxy)-benzylamino]-3-hydroxy-propionic acid isopropyl ester]
excretion in feces, % Of administered dose ([1]; time 72 h): 7.99 % Of administered dose and 7.99 ± 5.66 % Of administered dose
tissues of main distribution ([3]; rats, oral 10 mg/kg IMMH-010 maleate): adrenal gland, followed by the lymph, heart, liver and spleen
